Experimental data taken from PMC10535762 (2023).

Tested on: poly A–poly U (pApU, ds-RNA) (RNA, polymer) A/U
Test: fluorimetric titration, Scatchard fit
Conditions: Na+ (sodium cacodylate, I = 0.05 M), pH 7.0, 25 °C, recalculated for fixed n = 0.2 [bound dye]/[polynucleotide], c(nucleobase), per base

SMILES | log Ks (TB-AA 3 µM) | log Ks (TB-p 5 µM)
Cc1cccc(C)c1B(c1c(C)cc(N(C)C)cc1C)c1c(C)cc([N+](C)(C)Cc2cn(CC[C@H](NC(=O)OCC3c4ccccc4-c4ccccc43)C(=O)O)nn2)cc1C | 6.0 | –
C#CC[N+](C)(C)c1cc(C)c(B(c2c(C)cccc2C)c2c(C)cc(N(C)C)cc2C)c(C)c1 | – | 7.1
